Data from publication PMC2837410, “Structural Basis of Cell Wall Cleavage by a Staphylococcal Autolysin” (PLoS Pathogens, 2010).
Changes are numbered by the printed parent chain.

What was measured:
wt amidase = conditions: chelating agents likely remove the zinc ion; cited from earlier work
Excerpt: In order to determine whether amino acids in the vicinity of the zinc ion are required for enzymatic activity, residues H60, H177 and D179 were separately mutated to alanine. All three mutant proteins were expressed and purified to homogeneity. None of them has lytic activity in zymogram gels with heat-inactivated S. aureus cells, whereas the wild type (wt) protein is able to lyse cell walls efficiently (Figure 4A). Similar results were obtained with lysis assays using purified S. aureus PGN (Figure 4B). Our results therefore provide evidence for a critical role of the zinc ion and its surroun ...

AmiE = molecular target: T1, AmiE (Staphylococcus epidermidis, UniProt O33635); assay: Digestion assay with modified AmiE substrates (Mca substrate derivatives); format: biochemical; conditions: 70 µM substrate, 7.2 µM AmiE, 37°C, 50 mM sodium phosphate buffer pH 7.2, 6 h; stopped with 1% TFA; RP-HPLC C-18, UV 214 nm
T1 construct: A DNA fragment coding for amino acids 303 to 516 of the atlE gene product; GST (N, cleaved yes); made in house; host or cells: Escherichia coli BL21 (DE3)
T1 sequence (O33635 303-516): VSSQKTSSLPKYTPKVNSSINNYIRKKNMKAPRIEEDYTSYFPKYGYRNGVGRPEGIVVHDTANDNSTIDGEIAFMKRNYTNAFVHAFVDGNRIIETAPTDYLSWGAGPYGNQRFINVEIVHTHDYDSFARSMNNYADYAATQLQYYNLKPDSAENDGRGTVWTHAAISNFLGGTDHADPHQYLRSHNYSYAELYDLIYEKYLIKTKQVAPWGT
Procedure: The five substrates, each at a concentration of 70 µM, were processed by 7.2 µM AmiE at 37°C in digestion buffer (50 mM sodium phosphate buffer, pH 7.2). After 1, 3 and 6 h, the reaction was stopped by adding trifluoroacetic acid to a final concentration of 1%. Decrease of the initial substrate and formation of the Mca product were analyzed by analytical RP-HPLC using a binary HPLC system (Shimadzu, Tokyo, Japan) with a UV detector, a Nucleosil C-18 column (5 µm particle size, 150×2 mm) from Dr Maisch GmbH (Tuebingen, Germany) and a two solvent system: (A) 0.055% (v/v) TFA in water and (B) 0.05% TFA in 80% acetonitrile in water. The substrate was well separated from the generated cleavage product Mca, and was quantified at 214 nm.

AmiE wt = molecular target: T2, AmiE wt (Staphylococcus epidermidis, UniProt O33635); assay: MTP digestion assay (cleavage of PGN-derived ligands), wt enzyme; format: biochemical; conditions: 10 µg protein + 0.1 mg ligand in 10 µl 50 mM Tris/HCl pH 8.0, 150 mM NaCl; 72 h at 37°C; products analysed by HPLC and ESI-MS
T2 construct: A DNA fragment coding for amino acids 303 to 516 of the atlE gene product; GST (N, cleaved yes); made in house; host or cells: Escherichia coli BL21 (DE3)
T2 sequence (O33635 303-516): T1 sequence (O33635 303-516)
Procedure: (§1) To determine the minimal PGN sequence that can still be cleaved by AmiE, we performed cleavage assays with three PGN-derived compounds: MTP, N-acetylmuramyl-L-alanyl-D-iso-glutamine (MDP), and N-acetyl-D-glucosaminyl-(1,4)-N-acetylmuramyl-L-alanyl-D-iso-glutamine (GMDP). MDP and GDMP were purchased from Sigma and Calbiochem, respectively, whereas MTP was synthesized as described. All ligands were incubated with the wt protein for 72 h at 37°C, followed by analysis of products with HPLC and ESI mass spectrometry. […] The m/z profile of the H177A mutant is dominated by peaks at m/z 621 and 649 (Figure 5, right). The latter peak represents the MTP educt plus an unknown additional mass, which probably originates from the synthesis. Both peaks are replaced by peaks at m/z 346 and 374 in the profile for the wt protein (Figure 5, left). The first peak corresponds to the expected mass of the cleaved peptide stem while the second one is the digestion product of the compound with the higher mass. We conclude that cleavage by AmiE requires the presence of a third amino acid in the peptide stem. As the lysine is quite distant from the active site, it is most likely not required for the catalytic reaction itself but likely serves to anchor the ligand in the binding site. Similar cleavage results have previously been obtained for the catalytically active PGRP-L protein, which also requires MTP for cleavage.
For each assay, 10 µg of wt or mutant protein and 0.1 mg of the appropriate ligand were incubated in 10 µl gel filtration buffer (50 mM Tris/HCl pH 8.0, 150 mM NaCl). The reaction was stopped after 72 h by adding 100 µl acetonitrile with 0,05% (v/v) formic acid. The sample was then frozen at -20°C until used for ESI-MS.

AmiE H177A = molecular target: T3, AmiE H177A (Staphylococcus epidermidis, UniProt O33635, H479A); assay: MTP digestion assay, inactive mutant (negative control); format: biochemical; conditions: 10 µg protein + 0.1 mg ligand in 10 µl 50 mM Tris/HCl pH 8.0, 150 mM NaCl; 72 h; ESI-MS
T3 construct: A DNA fragment coding for amino acids 303 to 516 of the atlE gene product; GST (N, cleaved yes); made in house; host or cells: Escherichia coli
T3 sequence (O33635 303-516 H479A): T1 sequence (O33635 303-516) with H177A
Procedure: as §1, with “Similar cleavage results have previously been obtained for the catalytically active PGRP-L protein, which also requires MTP for cleavage.” left out

## O=C(O)CN(CCN(CC(=O)O)CC(=O)O)CC(=O)O [EDTA]
Wt amidase
  effect of chelating agent on activity of the wt amidase: loss of activity

## c1cnc2c(c1)ccc1cccnc12 [phenanthroline]
Wt amidase
  effect of chelating agent on activity of the wt amidase: loss of activity

## Mca-Ala-D-iGln-Ala-D-Ala-Arg-OH [Ala-substrate]
AmiE
  amount of substrate cleaved after 6 h: Approximately 10%

## Mca-Ala-D-iGln-Lys-D-Ala-Arg-OH [Lys-substrate]
AmiE
  amount of substrate cleaved after 6 h: almost half

## N-acetyl-D-glucosaminyl-(1,4)-N-acetylmuramyl-L-alanyl-D-iso-glutamine [GMDP]
AmiE wt
  cleavage of ligand by the wt enzyme: neither MDP nor GMDP are cleaved

## N-acetylmuramyl-L-alanyl-D-iso-glutamine [MDP]
AmiE wt
  cleavage of ligand by the wt enzyme: neither MDP nor GMDP are cleaved

## N-acetylmuramyl-L-alanyl-D-iso-glutamyl-L-lysine [MTP]
AmiE H177A
  cleavage of ligand by the H177A mutant: does not cleave
AmiE wt
  cleavage of ligand by the wt enzyme: cleaved into two fragments
